System: colon tumor 26
Test: Anti-cancer effect in vivo, transplanted colon tumor 26 in mice
Set-up: species or system BALB/c male mouse
Details: cisplatin 1 mg/kg ipx 5, Day 11
Excerpt: The tumors were excised and weighed.
Combine index (CI), CI=AB/(A×B). AB is the T/C of the combined effects of two drugs, A, B either is the T/C of the effect of one drug (when CI<1, these two drugs have combination).

## N.N.[Cl][Pt][Cl] [Cisplatin, cisplatin]
  The inhibitive rate: 44%
  tumor weight x ± s: 1.39 ± 0.39 g
